Test [1] in a line: Concentration required for 50% inhibition of influenza neuraminidase incubated in rat plasma at 37 degrees Celsius prior to assay. In kind it is cell-free. The following applies: unidentified influenza virus.
The nature of test [2]: Concentration required for 50% inhibition of influenza neuraminidase. On the set-up: species or system unidentified influenza virus.

By IC50 is commonly meant the point on the concentration scale where inhibition reaches its midpoint. A higher IC50 goes with weaker potency. Compound `CCCS[C@@H]1C=C(C(=O)O)C[C@H](N)[C@H]1NC(C)=O` displayed an IC50 in test [1] of 212 nM.

In turn, `CCCO[C@@H]1C=C(C(=O)O)C[C@H](N)[C@H]1NC(C)=O` had an IC50 in test [2] of 130 nM.

For `CCCC[C@@H]1C=C(C(=O)O)C[C@H](N)[C@H]1NC(C)=O`, it took 220 nM to reach half-maximal inhibition in test [2] (IC50).

The values above are taken from ChEMBL document CHEMBL1130310, “C3-Thia and C3-carba isosteres of a carbocyclic influenza neuraminidase inhibitor, (3R,4R,5S)-4-acetamido-5-amino-3-propoxyl-1-cyclohexene-1-carboxylic acid” (Bioorg Med Chem Lett, 1997).
